US12521364B2, “Composition for preventing or treating neuropathic pain, containing syringaresinol” (UNIVERSITY-INDUSTRY COOPERATION GROUP OF KYUNG HEE …, priority 2019, dated 2026)

Tests used:
p-ERK MAPK = test: Western blot of p-ERK in BV2 cells with oxaliplatin-induced inflammatory response; format: cell-based
Experimental: (§1) BV2 cell lines (microglia) were cultured in Dulbecco's modified Eagle's medium (DMEM; GIBCO, Grand Island, NY, USA) containing 10% fetal bovine serum (FBS; GIBCO) and 1% penicillin in a 5% CO2 incubator (37° C.). […]
(§2) Thereafter, proteins were isolated from the cells of each treatment group. […] The isolated proteins were quantified for each subject by using the Bradford (Bio-rad, USA) method using bovine serum albumin (BSA, Sigma, USA), and then 20 μg of the proteins were separated by 10% sodium dodecyl sulfate—polyacrylamide gel electrophoresis (SDS-PAGE) and transferred to polyvinylidene difluoride (PVDF) membranes (membrane, Gendepot, UK). […] The protein identification and quantitative analysis were performed using an imaging system (ChemiDoc XRS+ System, Bio-Rad).
(§3) All of the results were analyzed using the SPSS 21.0 package (SPSS Inc., Chicago, USA), and the experimental results were presented as the mean±standard deviation values. Statistical significance was validated using one-way analysis of variance (ANOVA) and then analyzed by Fisher's LSD test, and the significance probability value (p-value) was recognized only when p<0.05 and p<0.01.

p-NF-κB = test: Western blot of p-NF-κB in BV2 cells with oxaliplatin-induced inflammatory response; format: cell-based
Experimental: as §1, §2, §3

iNOS = test: Western blot of iNOS in BV2 cells with oxaliplatin-induced inflammatory response; format: cell-based
Experimental: as §1, §2, §3

[1] = test system: oxaliplatin-induced neuropathic pain animal models; test: Cold allodynia (acetone test) in oxaliplatin-induced neuropathic pain animal models; format: in vivo, c57/bl6 male mice; settings: 10 mg/kg oral, 1 hour after administration, day 3 after oxaliplatin injection, acetone to rear paws
Experimental: In the paclitaxel-induced neuropathic pain animal models, the response occurring after about 20 μL of acetone was applied to both rear paws of the animal models to cause cold allodynia was observed and recorded for about 15 seconds. The behaviors of withdrawal, shaking, and licking of the paws were observed and recorded. A total of three repeated trials were performed, and the average number of behaviors recorded was checked.
(§4) Oxaliplatin (Sigma-Aldrich) dissolved in a 5% glucose solution to 2 mg/mL was single-intraperitoneally administered at 6 mg/kg to twelve 5-week-old c57/bl6 male mice. Significant pain was observed from about 3 days after the first injection.
Cold allodynia was caused in the oxaliplatin-induced neuropathic pain animal models by way of the method in Example 2.
On the 3rd day after the oxaliplatin injection, animal models showing a statistically significant level of pain were divided into a drug group administered 10 mg/kg syringaresinol (syringaresinol, n=6) and a control group orally administered 0.06% Tween 80 (vehicle, n=6), and then were administered the corresponding drugs to thereby cause cold allodynia and mechanical allodynia after 1 hour.

[2] = test system: oxaliplatin-induced neuropathic pain animal models; test: Mechanical allodynia (von Frey filament) in oxaliplatin-induced neuropathic pain animal models; format: in vivo, c57/bl6 male mice; settings: 10 mg/kg oral, 1 hour after administration, day 3 after oxaliplatin injection, 0.4 g von Frey filament
Experimental: as §4
The behavior of withdrawal to a stimulus using a 0.4 g von Frey filament (Touch test 3.61, Stoelting, USA), which causes mechanical allodynia in the oxaliplatin-induced neuropathic pain animal models, was recorded and observed. To measure the withdrawal response of the paws in the animal models, the animals were put in a transparent acrylic box (7 cm×10 cm) placed on a wire mesh with a grid size of 5 mm and given time to acclimate to the environment. After about 1 hour, the acclimation of the mice was checked, and the medial part of the affected paw was stimulated with the quantified von Frey filament through a wire mesh grid. A total of 10 stimulations sufficient to slightly bend the von Frey filament were given at intervals of 20 seconds, and the number of withdrawals was measured. […]

[3] = test system: paclitaxel-induced neuropathic pain animal models; test: Cold allodynia (acetone test) in paclitaxel-induced neuropathic pain animal models; format: in vivo, c57/bl6 male mice; settings: 10 mg/kg oral, 1 hour after administration, day 14 after first paclitaxel injection, acetone to rear paws
Experimental: Paclitaxel (Sigma-Aldrich) dissolved in a 1:1 solution of Cremophor EL and ethanol at 6 mg/mL was diluted to a concentration of 0.2 mg/mL, and 2 mg/kg of the diluent was intraperitoneally administered to ten 6-week-old c57/bl6 male mice four times. Injections were conducted on days 0, 2, 4, and 6 at intervals of every other day. A significant pain was observed from about 10 days after the first injection. In the paclitaxel-induced neuropathic pain animal models, the response occurring after about 20 μL of acetone was applied to both rear paws of the animal models to cause cold allodynia was observed and recorded for about 15 seconds. The behaviors of withdrawal, shaking, and licking of the paws were observed and recorded. A total of three repeated trials were performed, and the average number of behaviors recorded was checked. On the 14th day after the first injection of paclitaxel, animal models showing a statistically significant level of pain were divided into a drug group administered 10 mg/kg of syringaresinol (syringaresinol, n=5) and a control group orally administered 0.06% Tween 80 (vehicle, n=5), and then were administered the corresponding drugs to thereby cause cold allodynia after 1 hour.

[4] = test system: peripheral nerve injury (PNL)-induced neuropathic pain animal models; test: Mechanical pain (von Frey filament) in peripheral nerve injury (partial sciatic nerve ligation, PNL)-induced neuropathic pain models; format: in vivo, c57/bl6 male mice; settings: 10 mg/kg oral, PNL mice
Experimental: The behavior of withdrawal to a stimulus using a 0.4 g von Frey filament (Touch test 3.61, Stoelting, USA), which causes mechanical allodynia in the oxaliplatin-induced neuropathic pain animal models, was recorded and observed. To measure the withdrawal response of the paws in the animal models, the animals were put in a transparent acrylic box (7 cm×10 cm) placed on a wire mesh with a grid size of 5 mm and given time to acclimate to the environment. After about 1 hour, the acclimation of the mice was checked, and the medial part of the affected paw was stimulated with the quantified von Frey filament through a wire mesh grid. A total of 10 stimulations sufficient to slightly bend the von Frey filament were given at intervals of 20 seconds, and the number of withdrawals was measured.
After twelve 5-week-old c57/bl6 male mice were respiratory anesthetized with 2.5% isoflurane, the skin on the posterior side of the right hip joint was shaved and incised, and then the sciatic nerve between the biceps femoris was found and confirmed. Thereafter, the […] was penetrated and ligated by a 7 m/m (⅜) silk thread, and then the cut skin was sutured. […]

[5] = BV2 cells stimulated with 1 μg/mL oxaliplatin for 3 hours, versus normal control
[6] = BV2 cells, syringaresinol 10 μg/mL and 100 μg/mL for 1 hour, then 1 μg/mL oxaliplatin for 3 hours

Row | SMILES | protein expression level of p-ERK MAPK (p-ERK MAPK; [5]) | protein expression level of p-NF-κB (p-NF-κB; [5]) | protein expression of iNOS (iNOS; [5]) | cold allodynia compared with the control group (vehicle) [1] | oxaliplatin-induced increase of p-ERK MAPK protein expression (p-ERK MAPK; [6]) | mechanical allodynia compared with the control group (vehicle) [2] | cold allodynia compared with the control group (vehicle) [3] | oxaliplatin-induced increase of p-NF-κB protein expression (p-NF-κB; [6]) | oxaliplatin-induced increase of iNOS protein expression (iNOS; [6]) | mechanical pain compared with the control group (vehicle) [4]
1 | O=C1[O][Pt]2([NH][C@@H]3CCCC[C@H]3[NH]2)[O]C1=O [oxaliplatin, reference compound] | significantly increased | significantly increased | significantly increased |  |  |  |  |  |  | 
2 | COc1cc(C2OCC3C(c4cc(OC)c(O)c(OC)c4)OCC23)cc(OC)c1O (stereo not shown) [syringaresinol] |  |  |  | mitigated | significantly inhibited | mitigated | mitigated | significantly inhibited | significantly inhibited | significantly mitigated
